Earlier results, collected in patent publication US20130136704A1, “P-MENTHANE-3,8-DIOL ISOMER MIXTURE, COMPOSITION COMPRISING THE SAME, AND PRODUCTS COMPRISING THE MIXTURE OR COMPOSITION” (TAKASAGO INTERNATIONAL CORPORATION, priority 2011, published 2013).

Conditions: Patent Literature 2

- concentration of p-menthane-3,8-diol in solution at which it is in a supersaturation state and crystals precipitate: ≥ 60%
Compound: CC1CCC(C(C)(C)O)C(O)C1 (stereo not shown) [p-menthane-3,8-diol]
